Results as given in PMC11328599, “Crystal structure of dihydroneopterin aldolase from Mycobacterium tuberculosis associated with 8-mercaptoguanine, and development of novel S8-functionalized analogues as inhibitors: Synthesis, enzyme inhibition, in vitro toxicity and antitubercular activity” (Journal of Enzyme Inhibition and Medicinal Chemistry, 2024).
Converted amounts (≈) assume the structure as drawn. “And” between values parts separate entries of the source, which are not always exact repeats. Identical values can stand only once. Like-named read-outs stand apart in the source and are kept apart here.

Assays:
MtFolB = biological target: T1, MtFolB (Mycobacterium tuberculosis, UniProt P9WNC5); assay: Mode of inhibition and inhibition constants on MtFolB aldolase activity (Lineweaver-Burk); format: biochemical; settings: towards substrate DHNP; for Ki: read-out: Kis DHNP
T1 construct: made in house
T1 sequence (P9WNC5 whole entry): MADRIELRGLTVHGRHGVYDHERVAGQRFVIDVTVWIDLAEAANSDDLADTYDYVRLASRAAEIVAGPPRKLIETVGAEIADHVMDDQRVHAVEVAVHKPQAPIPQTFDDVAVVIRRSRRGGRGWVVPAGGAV
Method: The mode of inhibition and the inhibition constants (Ki and/or Kis) were defined for the compounds 3a-e. There are three categories for the inhibition mode: competitive, where inhibitor and substrate binding are mutually exclusive; non-competitive, if the inhibitor can bind to both the free enzyme and the enzyme-substrate complex; or uncompetitive, when the inhibitor binds only to the enzyme-substrate complex. For each compound, 3 curves were performed with fixed-varied inhibitor concentration and varying the DHNP concentration until saturation of enzyme activity. For the compound 3a the fixed-varied concentrations were 0.2 μM, 0.5 μM and 0.8 μM (varying DHNP 0.5 – 10 μM). For the compound 3b the fixed-varied concentrations were 0.1 µM (varying DHNP 0.2 – 10 µM); 0.3 μM (varying DHNP 0.5 – 10 μM) and 0.6 μM (varying DHNP 0.5 – 15 μM). For the compound 3c the fixed-varied concentrations were 0.3 μM, 0.6 μM and 0.9 μM (varying DHNP 0.5 – 10 μM). For the compound 3d the fixed-varied concentrations were 0.5 μM, 1 μM (varying DHNP 0.5 – 10 μM) and 2.5 μM (varying DHNP 1 – 10 μM). For the compound 3e the fixed-varied concentrations were 1.4 µM, 3.5 µM (varying DHNP 0.5 – 10 µM) and 7 µM (varying DHNP 1 – 10 µM). Furthermore, we performed a control experiment with 10% DMSO in the absence of inhibitors varying the DHNP concentration until saturation (0.2 – 10 µM). The straight-line patterns obtained were used to define the mode of inhibition. The diagnostic signature of a competitive inhibitor is a set of lines that intersect on the y-axis, for non-competitive inhibitors the pattern of intersection is to the left of the y-axis and for uncompetitive inhibitors the lines are parallel to each other. The inhibition constants were calculated using Equation (2) for competitive inhibitors or Equation (3) for non-competitive inhibitors, where [I] is the inhibitor concentration, [S] is the substrate concentration, KM is the Michaelis-Menten constant, Vmax is the maximum velocity, Kis is the inhibition constant for the enzyme-substrate complex, and Kii is the inhibition constant for the enzyme-substrate-inhibitor complex. (2) 1/v0=KM/Vmax(1+[I]/Kis)1/[S]+1/Vmax (3) 1/v0=KM/Vmax(1+[I]/Kis)1/[S]+1/Vmax(1+[I]/Kii)

HepG2 cells = assay: in vitro; format: cell-based; settings: for % of cell viability ± SEM: human, 72 h
Method: (§1) Cell viability assays in the presence of compound 3e were performed in both Vero (BCRJ code 0245) and HepG2 (BCRJ code 0291) cells using MTT (3-[4,5-dimethylthiazol-2-yl]-2,5 diphenyl tetrazolium bromide)[21] and neutral red uptake (NRU)[22] methods. Both cell lines were grown in Dulbecco’s Modified Eagle Medium (DMEM-Gibco, Grand Island, NY, USA) supplemented with 10% or 20% inactivated foetal bovine serum (FBS- Invitrogen) for Vero and HepG2, respectively, 1% penicillin (Gibco) and streptomycin (Gibco), and 0.1% fungizone (Gibco). The experiments were performed in 96-well plates. First, cells were seeded at 6 x 10^3 (Vero) or 7 x 10^3/well (HepG2) and incubated overnight at 37 °C under a 5% CO2 atmosphere. Then, the medium was removed and replaced with fresh medium containing the compound at a final concentration of 75 µM, 87.5 µM, or 100 µM with DMSO at a final concentration of 0.8%. Cells were incubated during 72 h at 37 °C under a 5% CO2 atmosphere. For the MTT assay, the medium was removed after the incubation and replaced with MTT reagent (Sigma-Aldrich) at 5 mg/mL, and then the cells were incubated for 4 h. DMSO was used to solubilise formazan crystals. The absorbance was measured at 570 nm using microplate reader (EZ Read 400 microplate reader, Biochrom, Cambridge, UK). Precipitated purple formazan crystals were directly proportional to the number of live cells with mitochondrial metabolism. For the NRU assay, after the incubation with the compound, the media was removed and 200 µL of neutral red dye solution (Sigma-Aldrich) at 25 µg/mL prepared in serum-free medium was added to each well. The plate was then incubated for 3 h at 37 °C under 5% CO2. After this time, cells were washed twice with PBS, followed by incubation with 100 μL of a desorb solution (ethanol/acetic acid/water, […]) for 30 min, with gentle shaking to extract neutral red dye from the viable cells. The absorbance was measured at 562 nm using microplate reader (EZ Read 400 microplate reader, Biochrom, Cambridge, UK). Treated control wells (0.8% DMSO) were used as references for maximum cell viability (100%). Three independent experiments were performed, and the data were expressed as the means of cell viability ± the standard error of the means. Statistical analysis was performed using one-way ANOVA analysis of variance followed by Dunett’s Multiple Comparison Test post-test using GraphPad Prism 9.0.0 (San Diego, CA, USA).

in vitro = format: cell-based; settings: % of cell viability ± SEM
Method: as §1

Vero cells = assay: in vitro; format: cell-based; settings: for % of cell viability ± SEM: African green monkey, 72 h
Method: as §1

physchem = format: physicochemical; settings: 25 °C, thermodynamic from solid
Method: The solubility of the compound 3e was evaluated under three pH conditions: pH 1.2 (HCl 0.1 M); pH 7.4 (PBS 1X); and pH 9.1 (NH4HCO3 0.1 M). For this assay, we prepared a suspension of compound 3e at 1 mg/mL in each buffer solution by vortexing it for 1 min. Then, the suspension was kept under constant shaking for 4 h at 25 °C. Subsequently, the suspension was centrifuged at 13,000 rpm for 15 min at 25 °C. The supernatant was quantified by ultra-high-performance liquid chromatography (UHPLC) using single-point calibration of a known concentration of the compound in DMSO. The experiment was performed in triplicate.

[1] = system: M. tuberculosis H37Rv strain; assay: Minimum inhibitory concentration, resazurin reduction microplate assay (REMA); format: cell-based; settings: Mycobacterium tuberculosis
[2] = REMA, 7 days + 48 h resazurin, read-out: MIC
[3] = converted from µg/mL, read-out: MIC (equivalent)

## C[C@@H](NC(=O)CSc1nc2c(=O)[nH]c(N)nc2[nH]1)C1CCCCC1 [Compound 3n, (R)-2-((2-amino-6-oxo-6,9-dihydro-1H-purin-8-yl)thio)-N-(1-cyclohexylethyl)acetamide]
other
  melting point: 289 to 291 °C (dec.)

## Nc1nc2[nH]c(SCC(=O)Nc3ccc(C(=O)N4CCCC4)cc3)nc2c(=O)[nH]1 [Compound 3c, 2-((2-amino-6-oxo-6,9-dihydro-1H-purin-8-yl)thio)-N-(4-(pyrrolidine-1-carbonyl)phenyl)acetamide]
other
  melting point: 237 to 239 °C (dec.)
MtFolB
  Inhibition mode: Non-competitive
  Kii DHNP: 1.5 µM and 1.5 ± 0.9 µM
  Ki: 300 ± 200 nM

## Nc1nc2[nH]c(SCC(=O)Nc3ccc4c(c3)CCCC4)nc2c(=O)[nH]1 [Compound 3d, 2-((2-amino-6-oxo-6,9-dihydro-1H-purin-8-yl)thio)-N-(5,6,7,8-tetrahydronaphthalen-2-yl)acetamide]
other
  melting point: 294 to 295 °C (dec.)
MtFolB
  Inhibition mode: Competitive
  Ki: 200 ± 50 nM

## Nc1nc2[nH]c(SCC(=O)Nc3ccc(N4CCCCC4)cc3)nc2c(=O)[nH]1 [Compound 3a, 2-((2-amino-6-oxo-6,9-dihydro-1H-purin-8-yl)thio)-N-(4-(piperidin-1-yl)phenyl)acetamide]
other
  melting point: 258 to 260 °C (dec.)
MtFolB
  Inhibition mode: Competitive
  Ki: 400 ± 100 nM

## Nc1nc2[nH]c(SCC(=O)NC3CCCC3)nc2c(=O)[nH]1 [Compound 3h, 2-((2-amino-6-oxo-6,9-dihydro-1H-purin-8-yl)thio)-N-cyclopentylacetamide]
other
  melting point: 280 to 282 °C (dec.)

## Nc1nc2[nH]c(SCC(=O)Nc3cccc4c3CCCC4)nc2c(=O)[nH]1 [Compound 3e, 2-((2-amino-6-oxo-6,9-dihydro-1H-purin-8-yl)thio)-N-(5,6,7,8-tetrahydronaphthalen-1-yl)acetamide]
HepG2 cells
  toxicity: no apparent toxicity
HepG2 cells; 75 µM
  % of cell viability ± SEM: 100 ± 6%
HepG2 cells; 87.5 µM
  % of cell viability ± SEM: 111 ± 3%
HepG2 cells; 100 µM
  % of cell viability ± SEM: 104 ± 2%
In vitro; African green monkey
  viability at 72 h, 75 µM: 115 ± 2%
  viability at 72 h, 87.5 µM: 94 ± 10%
  viability at 72 h, 100 µM: 94 ± 3%
In vitro; human
  viability at 72 h, 75 µM: 108 ± 3%
  viability at 72 h, 87.5 µM: 97 ± 2%
  viability at 72 h, 100 µM: 96 ± 2%
Vero cells
  toxicity: no apparent toxicity
Vero cells; 75 µM
  % of cell viability ± SEM: 96 ± 1%
Vero cells; 87.5 µM
  % of cell viability ± SEM: 102 ± 3%
Vero cells; 100 µM
  % of cell viability ± SEM: 96 ± 2%
physchem; pH 1.2, simulated gastric fluid
  solubility at 4 h: 612 µM (≈ 227 µg/mL)
physchem; pH 7.4, aqueous buffer
  solubility at 4 h: 1.1 µM (≈ 0.407 µg/mL)
physchem; pH 9.1, aqueous buffer
  solubility at 4 h: 37.6 µM (≈ 13.9 µg/mL)
other
  melting point: 260 to 261 °C (dec.)
MtFolB
  Inhibition mode: Non-competitive
  Kii DHNP: 6.3 µM and 6.3 ± 1.2 µM
  Ki: 1400 ± 300 nM
[1]; [2]
  MIC: 40 µg/mL
[1]; [3]
  MIC: 108 µM

## Nc1nc2[nH]c(SCC(=O)NC3CCC3)nc2c(=O)[nH]1 [Compound 3i, 2-((2-amino-6-oxo-6,9-dihydro-1H-purin-8-yl)thio)-N-cyclobutylacetamide]
other
  melting point: 285 to 287 °C (dec.)

## CN(C(=O)CSc1nc2c(=O)[nH]c(N)nc2[nH]1)C1CCCCC1 [Compound 3j, 2-((2-amino-6-oxo-6,9-dihydro-1H-purin-8-yl)thio)-N-cyclohexyl-N-methylacetamide]
other
  melting point: 272 to 274 °C (dec.)

## Nc1nc2[nH]c(SCC(=O)Nc3ccc(N4CCOCC4)cc3)nc2c(=O)[nH]1 [Compound 3b, 2-((2-amino-6-oxo-6,9-dihydro-1H-purin-8-yl)thio)-N-(4-morpholinophenyl)acetamide]
other
  melting point: 326 to 328 °C (dec.)
MtFolB
  Inhibition mode: Competitive
  Ki: 300 ± 80 nM

## Nc1nc2[nH]c(SCC(=O)NCC3CCCCC3)nc2c(=O)[nH]1 [Compound 3l, 2-((2-amino-6-oxo-6,9-dihydro-1H-purin-8-yl)thio)-N-(cyclohexylmethyl)acetamide]
other
  melting point: 262 to 263 °C (dec.)

## CC1CCC(NC(=O)CSc2nc3c(=O)[nH]c(N)nc3[nH]2)CC1 (centres unmarked) [Compound 3g, 2-((2-amino-6-oxo-6,9-dihydro-1H-purin-8-yl)thio)-N-(4-methylcyclohexyl)acetamide]
other
  melting point: 282 to 284 °C (dec.)

## C[C@H](NC(=O)CSc1nc2c(=O)[nH]c(N)nc2[nH]1)C1CCCCC1 [Compound 3m, (S)-2-((2-amino-6-oxo-6,9-dihydro-1H-purin-8-yl)thio)-N-(1-cyclohexylethyl)acetamide]
other
  melting point: 294 to 296 °C (dec.)

## C[C@@H]1[C@H](NC(=O)CSc2nc3c(=O)[nH]c(N)nc3[nH]2)C[C@H]2C[C@@H]1C2(C)C [Compound 3k, 2-((2-amino-6-oxo-6,9-dihydro-1H-purin-8-yl)thio)-N-((1S,2S,3R,5R)-2,6,6-trimethylbicyclo [3.1.1]heptan-3-yl)acetamide]
other
  melting point: 289 to 291 °C (dec.)

## NNC(=O)c1ccncc1 [INH, Isoniazid]
[1]; [2]
  MIC: 0.31 µg/mL
[1]; [3]
  MIC: 2.3 µM

## Nc1nc2[nH]c(SCC(=O)NC3CCCCCC3)nc2c(=O)[nH]1 [Compound 3f, 2-((2-amino-6-oxo-6,9-dihydro-1H-purin-8-yl)thio)-N-cycloheptylacetamide]
other
  melting point: 292 to 294 °C (dec.)
